Here are results for 1 molecule from patent US11571420B2 (priority 2018, dated 2023).

One may read the IC50 as the midpoint of a concentration-inhibition curve.

For the assay, the target named is hADORA1/CHO (hA1 expressing) cells (Homo sapiens (Human), UniProt P30542). Kind of assay: FLIPR calcium inhibition assay in hADORA1/CHO (hA1 expressing) cells, 10 M adenosine. The assay is classed as cell-based. Conditions: read-out: cAMP & FLIPR IC50 (nM) hA1. How it is done:
hADORA1/CHO (hA1 expressing) cells (Genscript) were plated at 1×10^4 cells/well into 384-well polystyrene plates one day before starting the experiment. On the day of experiment, the supernatant was discard and replaced with 40 μL of dye (FLIPR calcium 5 Assay Kit) per well and the plates were incubated for 60 mins at 37° C. plus 5% CO2. Then testing compounds were added at different concentrations for FLIPR™ inhibition assay. After a 400 s incubation with compound, […] adenosine was added into the cells, and the signal was captured by FLIPR.

hADORA1/CHO (hA1 expressing) cells, sequence (P30542 whole entry): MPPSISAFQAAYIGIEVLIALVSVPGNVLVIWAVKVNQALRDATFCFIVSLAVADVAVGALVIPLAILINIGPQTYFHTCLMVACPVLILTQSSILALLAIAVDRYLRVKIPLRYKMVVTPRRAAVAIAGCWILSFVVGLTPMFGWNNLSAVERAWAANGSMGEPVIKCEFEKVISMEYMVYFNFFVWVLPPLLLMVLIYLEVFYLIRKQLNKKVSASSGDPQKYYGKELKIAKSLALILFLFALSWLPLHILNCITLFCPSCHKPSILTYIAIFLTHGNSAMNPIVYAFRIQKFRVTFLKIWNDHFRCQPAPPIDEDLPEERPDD

As to `Cc1cnc2ccc(-c3nc(C(=O)NCC4CCCCN4C)c(N)nc3-c3ncco3)cn12` (single isomer, unassigned; isomer 2) [Example 125, 3-amino-6-(3-methylimidazo[1,2-a]pyridin-6-yl)-N-((1-methylpiperidin-2-yl)methyl)-5-(oxazol-2-yl)pyrazine-2-carboxamide (isomer 2)], the IC50 is 10000 nM.
